The term IC50 denotes the concentration needed to halve the response being measured.

Format in all cases: functional, cell-based
The test system of test [1] is MDA-MB-231. In words: Antiproliferative activity against human MDA-MB-231 cells assessed as cell viability by Alamar Blue assay. (Alamar Blue is a resazurin reagent that responds to reducing activity.)
The nature of test [2]: Antiproliferative activity against human SF295 cells assessed as cell viability by Alamar Blue assay. Particulars: SF-295.
The nature of test [3]: Antiproliferative activity against human […] assessed as cell viability by Alamar Blue assay.
Test [4] deals with RKO. In words: Antiproliferative activity against human RKO cells assessed as cell viability by Alamar Blue assay.

Regarding `CC(=O)N[C@H](C)[C@@H](O)[C@@H](C)[C@@H]1OC(=O)/C=C/C=C(C)\C=C\[C@]2(C)CCC=C[C@@H]2/C=C(C)/C=C/[C@H]1C`, the IC50 in test [1] was 42.8 nM; in test [2] it was 66.1 nM; in test [3] it was 36.2 nM; in test [4] it was 154 nM.

For `CC(=O)N[C@H](C)[C@@H](O)[C@@H](C)[C@@H]1OC(=O)/C=C/C=C(C)\C=C\c2ccccc2/C=C(C)/C=C/[C@H]1C`, the IC50 in test [1] was greater than 5000 nM; in test [2], greater than 5000 nM; in test [3], 2200 nM; in test [4], greater than 5000 nM.
